According to ChEMBL document CHEMBL1671860, “Role of Cj1211 in natural transformation and transfer of antibiotic resistance determinants in Campylobacter jejuni” (2008):
Converted amounts (≈) assume the structure as drawn. The source made the active and inactive calls. The rule behind the calls is not given here.

Legend:
Campylobacter jejuni [1] = experiment: Antibacterial activity against Cj1211-positive Campylobacter jejuni harboring aphA3 and tet(O) genes; assay type: functional
Campylobacter jejuni [2] = experiment: Antibacterial activity against Cj1211-negative Campylobacter jejuni harboring aphA3 and tet(O) genes; assay type: functional
Campylobacter jejuni [3] = experiment: Antibacterial activity against Campylobacter jejuni JB201 infected in chicken assessed as decrease in bacterial colonization at 50 mg/L; assay type: functional, organism-based
Campylobacter = experiment: Antibacterial activity against Campylobacter by Etest; assay type: functional

| MIC (Campylobacter) | Compound | MIC (Campylobacter jejuni [1]) | MIC (Campylobacter jejuni [2]) | Activity (Campylobacter jejuni [3]) |
| --- | --- | --- | --- | --- |
|  | CN(C)[C@@H]1C(O)=C(C(N)=O)C(=O)[C@@]2(O)C(O)=C3C(=O)c4c(O)cccc4[C@@](C)(O)[C@H]3C[C@@H]12 [TETRACYCLINE] | 16 µg/mL (≈ 36 µM) | 16 µg/mL (≈ 36 µM) |  |
|  | CCN1CCN(c2cc3c(cc2F)c(=O)c(C(=O)O)cn3C2CC2)CC1 |  |  | Active |
| > 32 µg/mL | O=C(O)c1cn(C2CC2)c2cc(N3CCNCC3)c(F)cc2c1=O [CIPROFLOXACIN] |  |  |  |
|  | NC[C@H]1O[C@H](O[C@H]2[C@H](O)[C@@H](O[C@H]3O[C@H](CO)[C@@H](O)[C@H](N)[C@H]3O)[C@H](N)C[C@@H]2N)[C@H](O)[C@@H](O)[C@@H]1O [KANAMYCIN] | > 256 µg/mL | > 256 µg/mL |  |
